Reference: patent publication US11297835B2, “Aqueous compositions of perillic acid compounds” (B.R.A.I.N. BIOTECHNOLOGY RESEARCH AND INFORMATION NETWORK AG, priority 2016, dated 2022)

Tests used:
pKa = format: physicochemical; conditions: weak acid of which sodium perillate is the salt
[1] = Solubility in water-based systems; format: physicochemical; conditions: neutral pH; compared to the free perillic acid
[2] = test system: Staphylococcus aureus ATCC®6538; assay: Conservation efficacy testing in cosmetic oil-water-emulsion; format: cell-based; conditions: O/W emulsion pH 5-6, room temperature
Procedure: (§1) The conservation efficacy of sodium perillate in a final product was determined using two different formulations: • a) an oil-water-emulsion pH 5.5 (example for a cosmetic product), • b) a water-based glucose solution at pH 3.5 (example for a non-carbonated soft drink).
(§2) Hereby, a defined inoculum of the test strains was added directly to the formulations. In order to examine product preservation by sodium perillate or perillic acid, the formulations were incubated at room temperature for 4 to 16 weeks, respectively. Samples were taken every 7 days and […] (cfu) were counted on agar plates.
(§3) Among others the following strains were used to determine the efficacy of sodium peril-late in an oil-water emulsion: Escherichia coli ATCC®8739, Pseudomonas aeruginosa ATCC®9027, Stapyhlococcus aureus ATCC®6538, Candida albicans ATCC®10231, and Aspergillus brasiliensis ATCC®16404.
(§4) Table 2 Conservation efficacy testing of a typical cosmetic oil-water-emulsion at pH 5-6 supplemented with sodium perillate using five classical microbial test strains. All formulations were inoculated with a defined cell concentration and incubated over a time of 28 days at room temperature under standardized conditions. After 7, 14, 21 and 28 days samples were taken and the colony forming units (cfu) were calculated.

[3] = test system: Pseudomonas aeruginosa ATCC®9027; assay: as above; format: cell-based; conditions: O/W emulsion pH 5-6, room temperature
Procedure: as §1, §2, §3, §4

[4] = test system: Candida albicans ATCC®10231; assay: as above; format: cell-based; conditions: O/W emulsion pH 5-6, room temperature
Procedure: as §1, §2, §3, §4

[5] = test system: Escherichia coli ATCC®8739; assay: as above; format: cell-based; conditions: O/W emulsion pH 5-6, room temperature
Procedure: as §1, §2, §3, §4

[6] = test system: Aspergillus brasiliensis ATCC®16404; assay: as above; format: cell-based; conditions: O/W emulsion pH 5-6, room temperature
Procedure: as §1, §2, §3, §4

[7] = Stability investigation of sodium perillate on storage (TLC, GC, HPLC recovery); format: physicochemical; conditions: stored 12 months at 4° C., 22-25° C. and 50° C., gas and liquid chromatography
Procedure: Sodium perillate was prepared by adding a defined volume of a 0.1 M sodium hydroxide (NaOH) solution to perillic acid to give an aqueous solution of pH 7.0. The water was removed by evaporation resulting in a colorless solid. In order to investigate the stability of sodium perillate, the compound was stored for 12 months at 4° C., 22-25° C. (resemble room temperature) and 50° C. At certain time intervals all samples were examined and evaluated qualitatively using thin layer chromatography and quantitatively using gas and liquid chromatography. The results were compared to the stability of R perillic acid. […] These experiments highlight the long-term stability of sodium perillate.
Table 5 Recovery of sodium perillate measured by liquid chromatography (HPLC). Column: Phenomenex Luna 018. Method: 70% acetonitrile and 30% water, isocratic. Recovery values were calculated according to a calibration curve performed with sodium perillate in the range of 0.05-2 mM in acetonitrile. Detection was carried out by UV-light (DAD-detector) at 217 and 240 nm.

[8] = test system: Staphylococcus aureus ATCC®6538; assay: MIC, microdilution method adapted from DIN EN ISO 20776-1:2006; format: cell-based; conditions: no growth after 24 h and 72 h
Procedure: (§5) The antimicrobial activity of sodium perillate was examined in vitro using the microdilution method adapted from DIN EN ISO 20776-1:2006. R-Perillic acid and S-perillic acid were used as reference compounds. All experiments were done in 96-well plates in a final volume of 200 μL. Stock solutions of the investigated compounds were prepared in 25 mM buffer. The procedure was conducted as following: 4 μL of the particular stock solution were mixed with 196 μL culture medium containing a defined inoculum of the respective target strain. Sterile controls (not inoculated) and growth controls (buffer in-stead of compound added) were performed. All compound concentrations were tested in triplicate. The following strains were examined: Escherichia coli ATCC®8739, Pseudomonas aeruginosa ATCC®9027, Stapyhlococcus aureus ATCC®6538, Candida albicans ATCC®10231 and Aspergillus brasiliensis ATCC®16404. The following culture media were used: Mueller-Hinton II Bouillon (Escherichia coli, Pseudomonas aeruginosa and Staphylococcus aureus), yeast peptone dextrose (Candida albicans) and potato dextrose (Aspergillus brasiliensis). All culture media were buffered with 25 mM MES-buffer. For compound testing the plates were incubated at 37° C. (Escherichia coli, Pseudomonas aeruginosa and Staphylococcus aureus), at 28° C. (Candida albicans) and at 25° C. (Aspergillus brasiliensis). Plates were evaluated after 24 h and 72 h, respectively. The minimal inhibitory concentration is defined as the concentration where no microbial growth was observed after 24 h and 72 h incubation at the specified temperature.
(§6) Table 1 Determination of the minimal inhibition concentration (MIC, % w/v) of sodium perillate against five classical spoiling organisms under acidic (pH<6.5) and alkaline (pH>7.5) conditions using the microdilution method adapted according to DIN EN ISO 20776-1:2006. The experiments were performed in micro-well plates in a final volume of 200 μL. MIC-values are given according to the following letter code. A>1% w/v, B=0.5-1% w/v, C=0.1-0.5% w/v. D<0.1% w/v.

[9] = test system: Pseudomonas aeruginosa ATCC®9027; assay: as above; format: cell-based; conditions: no growth after 24 h and 72 h
Procedure: as §5, §6

[10] = test system: Candida albicans ATCC®10231; assay: as above; format: cell-based; conditions: no growth after 24 h and 72 h
Procedure: as §5, §6

[11] = test system: Escherichia coli ATCC®8739; assay: as above; format: cell-based; conditions: no growth after 24 h and 72 h
Procedure: as §5, §6

[12] = test system: Aspergillus brasiliensis ATCC®16404; assay: as above; format: cell-based; conditions: pH <6.5; no growth after 24 h and 72 h
Procedure: as §5, §6

Lactobacillus sp. = assay: Conservation efficacy testing in aqueous formulation (juice matrix); format: cell-based; conditions: aqueous formulation (juice matrix) pH 2.5-4, room temperature
Procedure: as §1, §2
(§7) Among others the following species were used to determine the efficacy of sodium perillate in a water-based glucose formulation: Saccharomyces sp., Schizosaccharomyces sp., Asaia sp., Lactobacillus sp., and Aspergillus sp.
(§8) Table 3 Illustration of cell reduction using sodium perillate in a typical aqueous formulation (juice matrix) for beverages pH 2.5-4 supplemented with sodium perillate. Conservation efficacy testing was performed using five microbial test strains: Saccharomyces sp., Schizosaccharomyces sp., Asaia sp., Lactobacillus sp., and Aspergillus sp. All formulations were inoculated with a defined cell concentration and incubated at room temperature under standardized conditions. After 7, 14, 21 and 28 days samples were taken and the colony forming units (cfu) were calculated and shown here.

Asaia sp. = assay: as above; format: cell-based; conditions: aqueous formulation (juice matrix) pH 2.5-4, room temperature
Procedure: as §1, §2, §7, §8

Schizosaccharomyces sp. = assay: as above; format: cell-based; conditions: aqueous formulation (juice matrix) pH 2.5-4, room temperature
Procedure: as §1, §2, §7, §8

Aspergillus sp. = assay: as above; format: cell-based; conditions: aqueous formulation (juice matrix) pH 2.5-4, room temperature
Procedure: as §1, §2, §7, §8

Saccharomyces sp. = assay: as above; format: cell-based; conditions: aqueous formulation (juice matrix) pH 2.5-4, room temperature
Procedure: as §1, §2, §7, §8

C=C(C)[C@@H]1CC=C(C(=O)O)CC1 [perillic acid]
pKa (pKa): 4.96

C=C(C)C1CC=C(C(=O)[O-])CC1.[Na+] (stereo not drawn) [Sodium perillate, sodium perillate]
Solubility in water-based systems [1]: higher solubility | Reduced log-steps After T28 ([2]; after 28 days): 6 log-steps | CFU/mL at Sampling Timepoint T0 ([2]; day 0): 130,000 CFU/mL | CFU/mL at Sampling Timepoint T7 ([2]; day 7): 0 CFU/mL | CFU/mL at Sampling Timepoint T14 ([2]; day 14): 0 CFU/mL | CFU/mL at Sampling Timepoint T21 ([2]; day 21): 0 CFU/mL | CFU/mL at Sampling Timepoint T28 ([2]; day 28): 0 CFU/mL | Reduced log-steps After T28 ([3]; after 28 days): 3 log-steps | CFU/mL at Sampling Timepoint T0 ([3]; day 0): 580,000 CFU/mL | CFU/mL at Sampling Timepoint T7 ([3]; day 7): 45,000 CFU/mL | CFU/mL at Sampling Timepoint T14 ([3]; day 14): 11,500 CFU/mL | CFU/mL at Sampling Timepoint T21 ([3]; day 21): 805 CFU/mL | CFU/mL at Sampling Timepoint T28 ([3]; day 28): 235 CFU/mL | Reduced log-steps After T28 ([4]; after 28 days): 2 log-steps | CFU/mL at Sampling Timepoint T0 ([4]; day 0): 68,000 CFU/mL | CFU/mL at Sampling Timepoint T7 ([4]; day 7): 8,260 CFU/mL | CFU/mL at Sampling Timepoint T14 ([4]; day 14): 1,925 CFU/mL | CFU/mL at Sampling Timepoint T21 ([4]; day 21): 4,100 CFU/mL | CFU/mL at Sampling Timepoint T28 ([4]; day 28): 630 CFU/mL | Reduced log-steps After T28 ([5]; after 28 days): 3 log-steps | CFU/mL at Sampling Timepoint T0 ([5]; day 0): 1,680,000 CFU/mL | CFU/mL at Sampling Timepoint T7 ([5]; day 7): 53,500 CFU/mL | CFU/mL at Sampling Timepoint T14 ([5]; day 14): 190 CFU/mL | CFU/mL at Sampling Timepoint T21 ([5]; day 21): 370 CFU/mL | CFU/mL at Sampling Timepoint T28 ([5]; day 28): 1,430 CFU/mL | Reduced log-steps After T28 ([6]; after 28 days): 2 log-steps | CFU/mL at Sampling Timepoint T0 ([6]; day 0): 11,000 CFU/mL | CFU/mL at Sampling Timepoint T7 ([6]; day 7): 13,000 CFU/mL | CFU/mL at Sampling Timepoint T14 ([6]; day 14): 2,270 CFU/mL | CFU/mL at Sampling Timepoint T21 ([6]; day 21): 2,900 CFU/mL | CFU/mL at Sampling Timepoint T28 ([6]; day 28): 170 CFU/mL | Degradation products detected [7]: no degradation products | MIC ([8]; pH <6.5): D (D<0.1% w/v) | MIC ([8]; pH >7.5): B (B=0.5-1% w/v) | MIC ([9]; pH <6.5): B (B=0.5-1% w/v) | MIC ([9]; pH >7.5): A (A>1% w/v) | MIC ([10]; pH <6.5): D (D<0.1% w/v) | MIC ([10]; pH >7.5): C (C=0.1-0.5% w/v) | MIC ([11]; pH <6.5): C (C=0.1-0.5% w/v) | MIC ([11]; pH >7.5): B (B=0.5-1% w/v) | MIC [12]: D (D<0.1% w/v) | CFU/mL at Sampling Timepoint T0 (Lactobacillus sp.; day 0): 10 CFU/mL | CFU/mL at Sampling Timepoint T7 (Lactobacillus sp.; day 7): 10 CFU/mL | CFU/mL at Sampling Timepoint T14 (Lactobacillus sp.; day 14): 56 CFU/mL | CFU/mL at Sampling Timepoint T21 (Lactobacillus sp.; day 21): 340 CFU/mL | CFU/mL at Sampling Timepoint T28 (Lactobacillus sp.; day 28): 910 CFU/mL | CFU/mL at Sampling Timepoint T0 (Asaia sp.; day 0): 45 CFU/mL | CFU/mL at Sampling Timepoint T7 (Asaia sp.; day 7): 17,250 CFU/mL | CFU/mL at Sampling Timepoint T14 (Asaia sp.; day 14): 8,940 CFU/mL | CFU/mL at Sampling Timepoint T21 (Asaia sp.; day 21): 725 CFU/mL | CFU/mL at Sampling Timepoint T28 (Asaia sp.; day 28): 685 CFU/mL | CFU/mL at Sampling Timepoint T0 (Schizosaccharomyces sp.; day 0): 55 CFU/mL | CFU/mL at Sampling Timepoint T7 (Schizosaccharomyces sp.; day 7): 350 CFU/mL | CFU/mL at Sampling Timepoint T14 (Schizosaccharomyces sp.; day 14): 3,265 CFU/mL | CFU/mL at Sampling Timepoint T21 (Schizosaccharomyces sp.; day 21): 4,990 CFU/mL | CFU/mL at Sampling Timepoint T0 (Aspergillus sp.; day 0): 10 CFU/mL | CFU/mL at Sampling Timepoint T7 (Aspergillus sp.; day 7): 0 CFU/mL | CFU/mL at Sampling Timepoint T14 (Aspergillus sp.; day 14): 0 CFU/mL | CFU/mL at Sampling Timepoint T21 (Aspergillus sp.; day 21): 0 CFU/mL | CFU/mL at Sampling Timepoint T28 (Aspergillus sp.; day 28): 0 CFU/mL | CFU/mL at Sampling Timepoint T0 (Saccharomyces sp.; day 0): 10 CFU/mL | CFU/mL at Sampling Timepoint T7 (Saccharomyces sp.; day 7): 23,900 CFU/mL | CFU/mL at Sampling Timepoint T14 (Saccharomyces sp.; day 14): 52,900 CFU/mL | CFU/mL at Sampling Timepoint T21 (Saccharomyces sp.; day 21): 530,000 CFU/mL | CFU/mL at Sampling Timepoint T28 (Saccharomyces sp.; day 28): 470,000 CFU/mL
